The MIC is the least concentration at which growth counts as inhibited.

Values after ≈ are worked out from the molar mass of the structure shown. Active and inactive are the calls of the source. The calls are words filed in the database; no cut-off is given here.

Consider six compounds from ChEMBL document CHEMBL1955836, “Isolation and identification of antibacterial neo-compounds from the red ants of ChangBai Mountain, Tetramorium sp” (2012).

For assay [1], the system named is Bacillus subtilis. Description: Antibacterial activity against Bacillus subtilis ATCC 6633 assessed as inhibition zone at 25 ug/mL by Kirby Bauer paper diffusion method. Type of assay: functional. Particulars: read-out: DIZ.
For assay [2], the system named is Escherichia coli. Description: Antibacterial activity against Escherichia coli O157:H7 by Kirby Bauer paper diffusion method. Type of assay: functional, organism-based.
Assay [3] has as its system Bacillus subtilis. Description: Antibacterial activity against Bacillus subtilis ATCC 6633 by Kirby Bauer paper diffusion method. It is filed as functional.
In assay [4] the test system is Bacillus subtilis. Description: Antibacterial activity against Bacillus subtilis ATCC 6633 assessed as inhibition zone at 15 ug/mL by Kirby Bauer paper diffusion method. It is filed as functional. As to conditions: read-out: DIZ.
In assay [5] the test system is Bacillus subtilis. Description: Antibacterial activity against Bacillus subtilis ATCC 6633 assessed as inhibition zone at 10 ug/mL by Kirby Bauer paper diffusion method. It is filed as functional. As to conditions: read-out: DIZ.

`O=C(Nc1ccccc1)c1cc(O)c(O)c(O)c1`: the zone of inhibition at 25 µg/mL in assay [1] was determined as 0 mm. Further, the result in assay [2] was inactive. Further, the minimum inhibitory concentration (MIC) in assay [3] was determined as 25 µg/mL (≈ 102 µM).

Regarding `Cc1c2oc(=O)ccc2cc2c(O)c(C(C)(C)O)oc12`, the zone of inhibition at 25 µg/mL in assay [1] came out at 4 mm. In addition, the result in assay [2] was inactive. This compound registered a minimum inhibitory concentration (MIC) in assay [3] of 25 µg/mL (≈ 91.2 µM).

For `O=C1C[C@]2(C=Cc3c(c4ccccc4oc3=O)O2)CN1`, the zone of inhibition at 25 µg/mL in assay [1] is 5 mm. In addition, the result in assay [2] was inactive. In assay [3], this compound yielded a minimal inhibitory concentration (MIC) of 25 µg/mL (≈ 92.8 µM).

Consider `C#Cc1ccc(-c2c(C=O)c3ccccc3oc2=O)cc1`, for which the zone of inhibition at 25 µg/mL in assay [1] worked out at 5 mm. The result in assay [2] was inactive. In addition, inhibition of growth in assay [3] (MIC) required 25 µg/mL (≈ 91.1 µM).

As to `O=C(NCCO)c1ccccc1`, the result in assay [2] was inactive. In assay [3], it took 15 µg/mL (≈ 90.8 µM) to inhibit growth (MIC). In addition, the zone of inhibition at 15 µg/mL in assay [4] stood at 7 mm.

With `CC1(C)S[C@@H]2[C@H](NC(=O)Cc3ccccc3)C(=O)N2[C@H]1C(=O)[O-].[K+]` [PENICILLIN G POTASSIUM], inhibition of growth in assay [3] (MIC) required 10 µg/mL. For the same compound, the zone of inhibition at 15 µg/mL in assay [4] was 20 mm. The zone of inhibition at 10 µg/mL in assay [5] came to 16 mm.
